In PMC10535268, “Design, Synthesis, and Evaluation of Novel Indole Hybrid Chalcones and Their Antiproliferative and Antioxidant Activity” (Molecules, 2023):

Tests used:
MDA-MB-231 = experiment: MTT antiproliferative assay, MDA-MB-231; assay type: cell-based, human; details: MDA-MB-231, 72 h incubation, mean ± SD of three independent experiments
HCT116 = experiment: MTT antiproliferative assay, HCT116; assay type: cell-based, human; details: mean ± SD of three independent experiments
Jurkat = experiment: MTT antiproliferative assay, Jurkat; assay type: cell-based, human; details: 72 h incubation, mean ± SD of three independent experiments
Hela = experiment: MTT antiproliferative assay, HeLa; assay type: cell-based, human; details: 72 h incubation, mean ± SD of three independent experiments
Description: Table 2 IC50 (μM) ± SD of tested compounds in different cell lines after 72 h incubation. | column: Cell Line, IC50 (µM) ± SD / Hela

MCF-7 = experiment: MTT antiproliferative assay, MCF-7; assay type: cell-based, human; details: mean ± SD of three independent experiments
MCF-10A = experiment: MTT cytotoxicity assay, non-cancer MCF-10A; assay type: cell-based, human; details: 72 h incubation, mean ± SD of three independent experiments
Bj-5ta = experiment: MTT cytotoxicity assay, non-cancer Bj-5ta; assay type: cell-based, human; details: 72 h incubation, mean ± SD of three independent experiments
[1] = DPPH radical scavenging activity; details: sample 1 mM, 30 min, gallic acid equivalents, mean (±SD), triplicate
[2] = ABTS radical scavenging activity; details: sample 1 mM, 30 min, gallic acid equivalents, mean (±SD), triplicate
Source text: (§1) Table 3 Antioxidant activity.

[3] = Ferric reducing antioxidant power (FRAP); details: sample 1 mM, 30 min, gallic acid equivalents, mean (±SD), triplicate
Source text: as §1

[4] = Homo sapiens, HCT-116, 72 h, HCT116, 72 h incubation
[5] = Homo sapiens, MCF7, 72 h, MCF-7, 72 h incubation
[6] = Homo sapiens, HCT-116, HCT116, 72 h incubation
[7] = Homo sapiens, MCF7, MCF-7, 72 h incubation

Row | IC50 (MDA-MB-231; Homo sapiens) [µM] | IC50 (HCT116; [4]) [µM] | IC50 (Jurkat; Homo sapiens) [µM] | IC50 (Hela; Homo sapiens, HeLa, 72 h) [µM] | IC50 (MCF-7; [5]) [µM] | melting point [°C] | SMILES | IC50 (MCF-10A; Homo sapiens, MCF-10A, 72 h) [µM] | IC50 (Bj-5ta; Homo sapiens) [µM] | DPPH [1] | ABTS [2] | FRAP [3] | also measured
1 | 66 ± 2.5 | 36.8 ± 0.5 | 33.9 ± 2.5 | 39.9 ± 2.6 | 42.2 ± 0.7 | 218 | O=C(/C=C/c1c[nH]c2ccccc12)c1ccc(O)cc1 [14a, (2E)-1-(4-hydroxyphenyl)-3-(1H-indol-3-yl)prop-2-en-1-one] | 51.5 ± 1.7 | 61 ± 0.6 | 12.3 (±2.3) µmol GAE/mmol | 194.8 (±21.4) µmol GAE/mmol | 105.5 (±3.4) µmol GAE/mmol | 
2 | > 100 | 49.3 ± 1.3 | > 100 | 93 ± 2.6 | 82.3 ± 1.8 | 244 | Cn1cc(/C=C/C(=O)c2ccc(O)cc2)c2ccccc21 [14b, (2E)-1-(4-hydroxyphenyl)-3-(1-methyl-1H-indol-3-yl)prop-2-en-1-one] | 54 ± 2.1 | > 100 | 7.3 (±3.1) µmol GAE/mmol | 84.6 (±2.7) µmol GAE/mmol | 114.3 (±4.2) µmol GAE/mmol | 
3 | 82.2 ± 3.1 | 34.5 ± 0.7 | 7.3 ± 0.1 | 34.6 ± 0.3 | 52.7 ± 2.6 | 182 to 184 | COn1cc(/C=C/C(=O)c2ccc(O)cc2)c2ccccc21 [14c, (2E)-1-(4-hydroxyphenyl)-3-(1-methoxy-1H-indol-3-yl)prop-2-en-1-one] | 59 ± 0.2 | 76.4 ± 1.7 | 21.1 (±5.8) µmol GAE/mmol | 75.9 (±5.3) µmol GAE/mmol | 42.0 (±2.0) µmol GAE/mmol | 
4 | 39.6 ± 2.1 |  |  | 31.4 ± 2 | 47.9 ± 0.2 | 197 to 200 | O=C(/C=C/c1ccc(O)cc1)c1c[nH]c2ccccc12 [17a, (2E)-3-(4-hydroxyphenyl)-1-(1H-indol-3-yl)prop-2-en-1-one] | 28.6 ± 0.5 |  | 16.0 (±1.1) µmol GAE/mmol | 227.6 (±5.4) µmol GAE/mmol | 161.6 (±5.7) µmol GAE/mmol | 
5 | > 100 |  |  | 39.8 ± 1.6 | > 100 | 213 to 215 | COn1cc(C(=O)/C=C/c2ccc(O)cc2)c2ccccc21 [17c, (2E)-3-(4-hydroxyphenyl)-1-(1-methoxy-1H-indol-3-yl)prop-2-en-1-one] | > 100 |  | 13.6 (±0.9) µmol GAE/mmol | 209.0 (±6.6) µmol GAE/mmol | 134.1 (±6.7) µmol GAE/mmol | 
6 | 39.3 ± 1.9 | 29.8 ± 0.7 |  |  | 42.3 ± 3.3 | 212 to 215 | O=C(/C=C/c1ccc(O)c(O)c1)c1c[nH]c2ccccc12 [18a, (2E)-3-(3,4-dihydroxyphenyl)-1-(1H-indol-3-yl)prop-2-en-1-one] | 11.5 ± 1.4 |  | 520.1 (±6.9) µmol GAE/mmol | 401.2 (±39.2) µmol GAE/mmol | 480.9 (±28.8) µmol GAE/mmol | 
7 | > 100 | 18.5 | 8 ± 1.4 | > 100 | > 100 | 206 to 209 | COn1cc(C(=O)/C=C/c2ccc(O)c(O)c2)c2ccccc21 [18c, (2E)-3-(3,4-dihydroxyphenyl)-1-(1-methoxy-1H-indol-3-yl)prop-2-en-1-one] | > 100 | > 100 | 551.1 (±14.9) µmol GAE/mmol | 298.1 (±21.0) µmol GAE/mmol | 432.0 (±21.4) µmol GAE/mmol | IC50 (HCT116; HCT116, 72 h incubation): 18.2 ± 2.9 µM; IC50 (µM) ± SD, MCF-10A (MCF-10A): no toxicity; IC50 (µM) ± SD, Bj-5ta (Bj-5ta): no toxicity
8 | 45.3 ± 0.5 | 62.7 ± 2.9 | 34 ± 0.3 | 25.5 ± 1.6 | 43.1 ± 1.6 | 200 to 203 | COc1cc(/C=C/C(=O)c2c[nH]c3ccccc23)ccc1O [19a, (2E)-3-(4-hydroxy-3-methoxyphenyl)-1-(1H-indol-3-yl)prop-2-en-1-one] | 24.7 ± 2.8 | 66.6 ± 0.1 | 223.5 (±11.2) µmol GAE/mmol | 564.7 (±74.5) µmol GAE/mmol | 307.2 (±11.9) µmol GAE/mmol | IC50 (HCT116; HCT116, 72 h incubation): 35.3 ± 0.6 µM; IC50 (Hela): 41.4 ± 2.5 µM; IC50 (MCF-10A): 40.2 ± 1.2 µM
9 |  |  |  |  |  | 155 to 156 | COc1cc(/C=C/C(=O)c2cn(OC)c3ccccc23)ccc1O [19c, (2E)-3-(4-hydroxy-3-methoxyphenyl)-1-(1-methoxy-1H-indol-3-yl)prop-2-en-1-one] |  |  | 207.7 (±8.6) µmol GAE/mmol | 456.0 (±24.6) µmol GAE/mmol | 296.2 (±10.4) µmol GAE/mmol | 

The remaining lines, values behind:

Row | SMILES | IC50 (MDA-MB-231; Homo sapiens) [µM] | IC50 (HCT116; [4]) [µM] | IC50 (Jurkat; Homo sapiens) [µM] | IC50 (Hela; Homo sapiens, HeLa, 72 h) [µM] | IC50 (MCF-7; [5]) [µM] | melting point [°C] | IC50 (MCF-10A; Homo sapiens, MCF-10A, 72 h) [µM] | IC50 (Bj-5ta; Homo sapiens) [µM] | DPPH [1] | ABTS [2] | FRAP [3] | also measured
10 | O=C(/C=C/c1c(OCCO)[nH]c2ccccc12)c1ccccc1F [11k, (2E)-1-(2-fluorophenyl)-3-[2-(2-hydroxyethoxy)-1H-indol-3-yl]prop-2-en-1-one] | 64.5 ± 4.7 | 39.4 ± 1.5 | 37.8 ± 0.9 | 52.9 ± 1.6 | 38.1 ± 3.3 | 140 to 143 | 94.7 ± 2.6 |  |  |  |  | 
11 | Cn1cc(/C=C/C(=O)c2ccc(C(F)(F)F)cc2)c2ccccc21 [12b, (2E)-3-(1-methyl-1H-indol-3-yl)-1-(4-trifluoromethylphenyl) prop-2-en-1-one] | > 100 | 12.3 ± 0.2 | > 100 | 32.8 ± 0.4 | 20.5 ± 5.1 | 182 to 184 | > 100 | > 100 |  |  |  | 
12 | COn1cc(/C=C/C(=O)c2ccc(C(F)(F)F)cc2)c2ccccc21 [12c, (2E)-3-(1-methoxy-1H-indol-3-yl)-1-(4-trifluoromethylphenyl) prop-2-en-1-one] | 81.3 ± 1.2 | 55.3 ± 1.7 | 39.3 ± 1.2 | 98 ± 2.8 | 86 ± 3.5 | 113 to 115 | 38.4 ± 3.1 | > 100 |  |  |  | 
13 | O=C(/C=C/c1c[nH]c2ccccc12)c1ccccc1O [13a, (2E)-1-(2-hydroxyphenyl)-3-(1H-indol-3-yl)prop-2-en-1-one] | 92.7 ± 1.8 | 40.5 ± 3.1 | 25.9 ± 2.4 | 39.6 ± 3.5 | 44.7 ± 2.6 | 179.5 to 181 | 55.4 ± 3.6 | 81.5 ± 0.2 | 14.2 (±0.4) µmol GAE/mmol | 292.4 (±12.4) µmol GAE/mmol | 125.2 (±9.4) µmol GAE/mmol | 
14 | Cn1cc(/C=C/C(=O)c2ccccc2O)c2ccccc21 [13b, (2E)-1-(2-hydroxyphenyl)-3-(1-methyl-1H-indol-3-yl)prop-2-en-1-one] | 82 ± 3.2 | 34.7 ± 0.2 | > 100 | 42.8 ± 2.5 | 29.7 ± 2.3 | 205 to 207 | > 100 | > 100 | 7.6 (±3.8) µmol GAE/mmol | 116.8 (±5.8) µmol GAE/mmol | 41.2 (±0.7) µmol GAE/mmol | 
15 | COn1cc(/C=C/C(=O)c2ccccc2O)c2ccccc21 [13c, (2E)-1-(2-hydroxyphenyl)-3-(1-methoxy-1H-indol-3-yl)prop-2-en-1-one] | > 100 | 54 ± 2.2 | 42 ± 1.8 | 73.9 ± 3.4 | 53.4 ± 2.5 | 139 to 140 | > 100 | > 100 | 30.3 (±15.4) µmol GAE/mmol | 214.6 (±28.4) µmol GAE/mmol | 43.4 (±1.8) µmol GAE/mmol | 
16 | Cn1cc(C(=O)/C=C/c2ccc(O)cc2)c2ccccc21 [17b, (2E)-3-(4-hydroxyphenyl)-1-(1-methyl-1H-indol-3-yl)prop-2-en-1-one] |  |  |  |  |  | 236 to 239 |  |  | 20.7 (±6.6) µmol GAE/mmol | 218.9 (±5.6) µmol GAE/mmol | 156.2 (±1.1) µmol GAE/mmol | IC50 (HCT116; [6]): > 100 µM; IC50 (MCF-7; [7]): 50.3 ± 0.6 µM; IC50 (MCF-10A; Homo sapiens): 22.8 ± 0.4 µM
17 | Cn1cc(C(=O)/C=C/c2ccc(O)c(O)c2)c2ccccc21 [18b, (2E)-3-(3,4-dihydroxyphenyl)-1-(1-methyl-1H-indol-3-yl)prop-2-en-1-one] |  |  |  |  |  | 210 to 214 |  |  | 589.1 (±8.9) µmol GAE/mmol | 487.3 (±43.9) µmol GAE/mmol | 564.8 (±2.2) µmol GAE/mmol | IC50 (HCT116; [6]): 7.1 ± 0.7 µM; IC50 (Hela; Homo sapiens): 6.7 ± 0.8 µM; IC50 (MCF-7; [7]): 37.4 ± 2.2 µM; IC50 (MCF-10A; Homo sapiens): 7.8 ± 0.3 µM
18 | COc1cc(/C=C/C(=O)c2cn(C)c3ccccc23)ccc1O [19b, (2E)-3-(4-hydroxy-3-methoxyphenyl)-1-(1-methyl-1H-indol-3-yl)prop-2-en-1-one] |  |  |  |  |  | 170 to 172 |  |  | 225.6 (±14.7) µmol GAE/mmol | 410.7 (±28.9) µmol GAE/mmol | 262.2 (±14.2) µmol GAE/mmol | IC50 (Hela; Homo sapiens): 34.9 ± 1.3 µM; IC50 (MCF-7; [7]): 69.8 ± 1.1 µM; IC50 (MCF-10A; Homo sapiens): 28.9 ± 0.8 µM
19 | N.N.[Cl][Pt][Cl] [Cisplatin, reference compound] |  |  |  |  |  |  |  |  |  |  |  | IC50 (MDA-MB-231): 17.4 ± 0.2 µM; IC50 (HCT116; HCT116, 72 h incubation): 15.3 ± 1.6 µM; IC50 (Jurkat): 6.3 ± 0.4 µM; IC50 (Hela): 6.5 ± 0.5 µM; IC50 (MCF-7; MCF-7, 72 h incubation): 24.6 ± 2.1 µM; IC50 (MCF-10A): 25.9 ± 2.1 µM; IC50 (Bj-5ta): 37.9 ± 1.9 µM
